According to patent US20160046618A1, “Cyclopropyl Fused Thiazin-2-Amine Compounds as Beta-Secretase Inhibitors and Methods of Use” (AMGEN INC., priority 2014, published 2016):

Assays:
[1] = test system: Aβ40 in conditioned medium of cells stably expressing Amyloid Precursor Protein (APP); experiment: In vitro BACE-1 cell-based assay (Aβ40 sandwich ELISA); conditions: read-out: IC50 IP (μM) BACE1 cell
Outline: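 APP-stable cells, pre-cultured 24 h at 37° C in DMEM/10% FBS, were treated 24 h with compound in a 10-point series starting at 100 μM or 10 μM (0.1% DMSO final). Secreted Aβ40 in conditioned medium was measured by pAb40/biotin-6E10 sandwich ELISA with Europium time-resolved fluorescence; IC50 from percent inhibition versus concentration.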

Recombinant Cat D = Recombinant Cat D (Homo sapiens (Human), UniProt P07339); experiment: In vitro enzymatic Cathepsin D (Cat D) FRET assay; type: biochemical; conditions: read-out: IC50 IP (μM) CatD
Outline: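 Cleavage of a 20 nM FRET peptide by CHO-derived Cat D over 1 h at pH 3.5 (citrate buffer with CHAPS, 10% DMSO final). Endpoint fluorescence is read after Tris quench.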

human recombinant BACE2 = human recombinant BACE2 (Homo sapiens (Human), UniProt Q9Y5Z0); experiment: In vitro enzymatic BACE2 FRET assay; type: biochemical; conditions: read-out: IC50 IP (μM) BACE2 enzyme
Outline: (§1)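 Ni-NTA-purified recombinant enzyme incubated 1 h with 50 nM FRET peptide substrate (fluorophore and quencher flanking the BACE cleavage site). Reaction stopped with Tris buffer raising pH to neutrality; cleavage-released fluorescence read at ex 488/em 590 nm.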

human recombinant BACE1 = human recombinant BACE1 (Homo sapiens (Human), UniProt P56817); experiment: In vitro enzymatic BACE1 FRET assay; type: biochemical; conditions: read-out: IC50 IP (μM) BACE1 enzyme
Outline: as §1

Chain of Recombinant Cat D (P07339 65-412): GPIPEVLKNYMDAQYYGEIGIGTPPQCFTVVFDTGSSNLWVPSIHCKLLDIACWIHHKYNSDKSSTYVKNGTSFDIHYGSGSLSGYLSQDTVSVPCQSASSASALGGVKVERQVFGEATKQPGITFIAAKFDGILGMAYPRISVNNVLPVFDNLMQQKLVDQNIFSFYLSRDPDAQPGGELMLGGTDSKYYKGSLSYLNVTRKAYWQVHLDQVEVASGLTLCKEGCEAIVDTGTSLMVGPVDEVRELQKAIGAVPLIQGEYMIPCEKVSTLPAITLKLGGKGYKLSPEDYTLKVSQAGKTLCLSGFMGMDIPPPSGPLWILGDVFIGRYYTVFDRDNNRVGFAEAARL
Chain of human recombinant BACE2 (Q9Y5Z0 63-518): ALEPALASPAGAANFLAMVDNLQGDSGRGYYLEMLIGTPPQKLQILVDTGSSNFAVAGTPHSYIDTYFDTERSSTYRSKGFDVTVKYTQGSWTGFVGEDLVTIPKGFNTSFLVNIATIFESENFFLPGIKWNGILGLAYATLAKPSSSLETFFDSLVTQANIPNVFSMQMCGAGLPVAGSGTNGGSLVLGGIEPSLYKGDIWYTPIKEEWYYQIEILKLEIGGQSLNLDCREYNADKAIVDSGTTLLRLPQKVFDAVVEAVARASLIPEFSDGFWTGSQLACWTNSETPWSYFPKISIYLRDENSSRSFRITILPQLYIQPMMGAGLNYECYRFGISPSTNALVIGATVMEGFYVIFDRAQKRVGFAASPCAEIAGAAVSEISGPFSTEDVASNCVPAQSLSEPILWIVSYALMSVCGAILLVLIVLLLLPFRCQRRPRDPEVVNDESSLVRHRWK
Chain of human recombinant BACE1 (P56817 46-501): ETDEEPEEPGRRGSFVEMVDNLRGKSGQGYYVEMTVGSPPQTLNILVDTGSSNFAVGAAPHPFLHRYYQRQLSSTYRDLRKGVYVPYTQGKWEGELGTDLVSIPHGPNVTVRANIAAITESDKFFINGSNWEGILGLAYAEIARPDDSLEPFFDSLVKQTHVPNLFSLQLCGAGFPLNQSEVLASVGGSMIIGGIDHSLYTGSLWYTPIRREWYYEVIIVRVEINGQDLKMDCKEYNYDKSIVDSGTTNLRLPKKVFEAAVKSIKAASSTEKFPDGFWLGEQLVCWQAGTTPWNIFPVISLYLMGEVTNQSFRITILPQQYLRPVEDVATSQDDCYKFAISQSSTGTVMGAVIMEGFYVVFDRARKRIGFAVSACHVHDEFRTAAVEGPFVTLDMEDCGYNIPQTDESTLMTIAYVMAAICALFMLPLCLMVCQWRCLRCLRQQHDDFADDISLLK

SMILES	IC50 [1]	IC50 (Recombinant Cat D)	IC50 (human recombinant BACE2)	IC50 (human recombinant BACE1)
CN(C)C(=O)/C=C/[C@]12C[C@H]1[C@@](CF)(c1cc(NC(=O)c3ccc(Cl)cn3)ccc1F)N=C(N)S2 [Example 761, N-(3-((1R,5S,6S)-3-amino-1-((E)-3-(dimethylamino)-3-oxoprop-1-en-1-yl)-5-(fluoromethyl)-2-thia-4-azabicyclo[4.1.0]hept-3-en-5-yl)-4-fluorophenyl)-5-chloropicolinamide]	0.00152 µM	364 µM	< 0.00203 µM	0.000794 µM
C#CCOc1cnc2c(Nc3ccc(F)c([C@@]4(CF)N=C(N)S[C@H]5C[C@H]54)c3)nccc2n1 [Example 762, N-(3-((1S,5S,6S)-3-amino-5-(fluoromethyl)-2-thia-4-azabicyclo[4.1.0]hept-3-en-5-yl)-4-fluorophenyl)-2-(2-propyn-1-yloxy)pyrido[3,4-b]pyrazin-5-amine]	0.0142 µM	669 µM	0.0384 µM	0.00303 µM
NC1=N[C@](CF)(c2cc(Nc3ncnc4cc(OCc5ncco5)cnc34)ccc2F)[C@@H]2C[C@@H]2S1 [Example 763, N-(3-((1S,5S,6S)-3-amino-5-(fluoromethyl)-2-thia-4-azabicyclo[4.1.0]hept-3-en-5-yl)-4-fluorophenyl)-7-(1,3-oxazol-2-ylmethoxy)pyrido[3,2-d]pyrimidin-4-amine]	0.0048 µM	1110 µM	0.239 µM	0.00849 µM
NC1=N[C@](CF)(c2cc(NC(=O)c3ccc(Cl)cn3)ccc2F)[C@@H]2C[C@]2(/C=C/C(=O)N2CCOCC2)S1 [Example 764, N-(3-((1R,5S,6S)-3-amino-5-(fluoromethyl)-1-((E)-3-morpholino-3-oxoprop-1-en-1-yl)-2-thia-4-azabicyclo[4.1.0]hept-3-en-5-yl)-4-fluorophenyl)-5-chloropicolinamide]	0.000856 µM	518 µM	< 0.00203 µM	0.00073 µM
CN(C)C(=O)CC[C@]12C[C@H]1[C@@](CF)(c1cc(NC(=O)c3ccc(Cl)cn3)ccc1F)N=C(N)S2 [Example 765, N-(3-((1S,5S,6S)-3-amino-1-(3-(dimethylamino)-3-oxopropyl)-5-(fluoromethyl)-2-thia-4-azabicyclo[4.1.0]hept-3-en-5-yl)-4-fluorophenyl)-5-chloropicolinamide]	0.0011 µM	1070 µM	< 0.00203 µM	0.000706 µM
COC1CN(C(=O)/C=C/[C@]23C[C@H]2[C@@](CF)(c2cc(NC(=O)c4ccc(Cl)cn4)ccc2F)N=C(N)S3)C1 [Example 766, N-(3-((1R,5S,6S)-3-amino-5-(fluoromethyl)-1-((E)-3-(3-methoxyazetidin-1-yl)-3-oxoprop-1-en-1-yl)-2-thia-4-azabicyclo[4.1.0]hept-3-en-5-yl)-4-fluorophenyl)-5-chloropicolinamide]	0.0031 µM	848 µM	< 0.00203 µM	0.00105 µM
COCCNC(=O)/C=C/[C@]12C[C@H]1[C@@](CF)(c1cc(NC(=O)c3ccc(Cl)cn3)ccc1F)N=C(N)S2 [Example 767, N-(3-((1R,5S,6S)-3-amino-5-(fluoromethyl)-1-((E)-3-((2-methoxyethyl)amino)-3-oxoprop-1-en-1-yl)-2-thia-4-azabicyclo[4.1.0]hept-3-en-5-yl)-4-fluorophenyl)-5-chloropicolinamide]	0.00143 µM	602 µM	< 0.00203 µM	0.00102 µM
C#CCOc1cnc2c(Nc3ccc(F)c([C@@]4(CF)N=C(N)S[C@@]5(/C=C/C(=O)N(C)C)C[C@H]54)c3)nccc2n1 [Example 768, (2E)-3-((1R,5S,6S)-3-amino-5-(fluoromethyl)-5-(2-fluoro-5-((2-(2-propyn-1-yloxy)pyrido[3,4-b]pyrazin-5-yl)amino)phenyl)-2-thia-4-azabicyclo[4.1.0]hept-3-en-1-yl)-N,N-dimethyl-2-propenamide]	0.00113 µM	406 µM	0.00612 µM	0.00119 µM
CN(C)C(=O)/C=C/[C@]12C[C@H]1[C@@](CF)(c1cc(Nc3nccc4nc(OCc5ncco5)cnc34)ccc1F)N=C(N)S2 [Example 769, (2E)-3-((1R,5S,6S)-3-amino-5-(fluoromethyl)-5-(2-fluoro-5-((2-(1,3-oxazol-2-ylmethoxy)pyrido[3,4-b]pyrazin-5-yl)amino)phenyl)-2-thia-4-azabicyclo[4.1.0]hept-3-en-1-yl)-N,N-dimethyl-2-propenamide]	0.00121 µM	224 µM	0.023 µM	0.00143 µM
CC#CCOc1cnc2c(Nc3ccc(F)c([C@@]4(CF)N=C(N)S[C@@]5(/C=C/C(=O)N(C)C)C[C@H]54)c3)nccc2c1 [Example 771, (2E)-3-((1R,5S,6S)-3-amino-5-(5-((3-(2-butyn-1-yloxy)-1,7-naphthyridin-8-yl)amino)-2-fluorophenyl)-5-(fluoromethyl)-2-thia-4-azabicyclo[4.1.0]hept-3-en-1-yl)-N,N-dimethyl-2-propenamide]	0.00146 µM	282 µM	0.0786 µM	0.00204 µM
NC1=N[C@](CF)(c2cc(NC(=O)c3ccc(Cl)cn3)ccc2F)[C@@H]2C[C@]2(/C=C/C(=O)N2CC(F)(F)C2)S1 [Example 772, N-(3-((1R,5S,6S)-3-amino-1-((1E)-3-(3,3-difluoro-1-azetidinyl)-3-oxo-1-propen-1-yl)-5-(fluoromethyl)-2-thia-4-azabicyclo[4.1.0]hept-3-en-5-yl)-4-fluorophenyl)-5-chloro-2-pyridinecarboxamide]	0.000972 µM	82 µM	< 0.00203 µM	0.000429 µM
C#CCOc1cnc2c(Nc3ccc(F)c([C@@]4(CF)N=C(N)S[C@@]5(/C=C/C(=O)N6CC(F)(F)C6)C[C@H]54)c3)nccc2n1 [Example 773, N-(3-((1R,5S,6S)-3-amino-1-((1E)-3-(3,3-difluoro-1-azetidinyl)-3-oxo-1-propen-1-yl)-5-(fluoromethyl)-2-thia-4-azabicyclo[4.1.0]hept-3-en-5-yl)-4-fluorophenyl)-2-(2-propyn-1-yloxy)pyrido[3,4-b]pyrazin-5-amine]	0.00148 µM	113 µM	< 0.00203 µM	0.000423 µM
C#CCOc1cnc(C(=O)Nc2ccc(F)c([C@@]3(CF)N=C(N)S[C@@]4(/C=C/C(=O)N(C)C)C[C@H]43)c2)cn1 [Example 774, N-(3-((1R,5S,6S)-3-amino-1-((1E)-3-(dimethylamino)-3-oxo-1-propen-1-yl)-5-(fluoromethyl)-2-thia-4-azabicyclo[4.1.0]hept-3-en-5-yl)-4-fluorophenyl)-5-(2-propyn-1-yloxy)-2-pyrazinecarboxamide]	0.000583 µM	7.95 µM	0.00575 µM	0.000313 µM
CN(C)C(=O)/C=C/[C@]12C[C@H]1[C@@](CF)(c1cc(Nc3ncnc4cc(OCc5ncco5)cnc34)ccc1F)N=C(N)S2 [Example 775, (2E)-3-((1R,5S,6S)-3-amino-5-(fluoromethyl)-5-(2-fluoro-5-((7-(1,3-oxazol-2-ylmethoxy)pyrido[3,2-d]pyrimidin-4-yl)amino)phenyl)-2-thia-4-azabicyclo[4.1.0]hept-3-en-1-yl)-N,N-dimethyl-2-propenamide]	0.00323 µM	22.8 µM	0.0602 µM	0.00112 µM
C#CCOc1cnc2c(Nc3ccc(F)c([C@@]4(CF)N=C(N)S[C@@]5(/C=C/C(=O)N(C)C)C[C@H]54)c3)ncnc2c1 [Example 776, (2E)-3-((1R,5S,6S)-3-amino-5-(fluoromethyl)-5-(2-fluoro-5-((7-(2-propyn-1-yloxy)pyrido[3,2-d]pyrimidin-4-yl)amino)phenyl)-2-thia-4-azabicyclo[4.1.0]hept-3-en-1-yl)-N,N-dimethyl-2-propenamide]	0.00305 µM	293 µM	0.0264 µM	0.0012 µM
C/C(=C/[C@]12C[C@H]1[C@@](CF)(c1cc(NC(=O)c3ccc(Cl)cn3)ccc1F)N=C(N)S2)C(=O)N1CCOCC1 [Example 777, N-(3-((1R,5S,6S)-3-amino-5-(fluoromethyl)-1-((Z)-2-methyl-3-morpholino-3-oxoprop-1-en-1-yl)-2-thia-4-azabicyclo[4.1.0]hept-3-en-5-yl)-4-fluorophenyl)-5-chloropicolinamide]	0.000416 µM	834 µM	< 0.00203 µM	0.000274 µM
C/C(=C\[C@]12C[C@H]1[C@@](CF)(c1cc(NC(=O)c3ccc(Cl)cn3)ccc1F)N=C(N)S2)C(=O)N1CCOCC1 [Example 778, N-(3-((1R,5S,6S)-3-amino-5-(fluoromethyl)-1-((E)-2-methyl-3-morpholino-3-oxoprop-1-en-1-yl)-2-thia-4-azabicyclo[4.1.0]hept-3-en-5-yl)-4-fluorophenyl)-5-chloropicolinamide]	0.0134 µM	557 µM	0.0026 µM	0.00558 µM
C#CCOc1cnc2c(Nc3ccc(F)c([C@@]4(CF)N=C(N)S[C@@]5(C(=O)N(C)C)C[C@H]54)c3)nccc2n1 [Example 779, (1S,5S,6S)-3-amino-5-(fluoromethyl)-5-(2-fluoro-5-((2-(2-propyn-1-yloxy)pyrido[3,4-b]pyrazin-5-yl)amino)phenyl)-N,N-dimethyl-2-thia-4-azabicyclo[4.1.0]hept-3-ene-1-carboxamide]	0.00082 µM	> 400 µM	< 0.00203 µM	0.000728 µM
